In patent US20220010283A1, “METHOD FOR PRODUCING PLURIPOTENT STEM CELL HAVING RELEASED DIFFERENTIATION RESISTANCE TO MESENDODERM” (Kyoto University, priority 2018, published 2022):

Columns and labels:
[1] = test system: human iPS cell line AK5 (hPSC1); assay: Differentiation into hematopoietic progenitor cells by the PSC-Sac method (CD34+CD43+ cell count); format: cell-based; details: PSCs maintained on LM511, CHIR99021 6 nM added from 4, 3, 2 or 1 day before start of differentiation induction; vs DMSO (FIG. 2)
Experimental: PSCs were cultured according to the previous report on various laminin E8 fragments under feeder-free conditions (Nakagawa et al., Scientific Reports, 4: 3954, 2014). Among the recombinant laminin E8 fragments used, LM511 E8 was iMatrix-511/iMatrix-511 silk (Nippi, Ibaraki, Japan), and other laminin E8 (LM421/121) fragments were provided by Dr. Kiyotoshi Sekiguchi (Institute for Protein Research, Osaka University). Each laminin fragment was added to 0.5 μg/cm^2 relative to the dish bottom area. In the laminin dilution experiment, coating was performed in the same manner as described above under the conditions of [x½], [x¼], [x⅛], [x 1/16], wherein [x1] is Laminin 511E8 0.5 μg/cm^2 condition. […]
As a method for performing blood cell differentiation from PSCs, the PSC-Sac method, which is a co-culture method with mouse interstitial cell C3H10TR, was used (Takayama and Eto Methods Mol Biol. 2012; 788:205-17, Takaayama et al. J Exp Med. 2010 207(13): 2817-2830). […] After confirmation of the absence of intercellular adhesion, the cells were detached from the dish with Cell scraper, and the number of the cells was counted with Trypan Blue and a hemocytometer. […]
The number of the cells was counted with Trypan Blue and a hemocytometer. […] For the measurement of hPSCs, TRA-1-60 positive cells were measured. […]

human iPS cell line AK5 = assay: Intracellular staining and flow cytometry of pluripotency markers SOX2 and OCT3/4; format: cell-based; details: PSCs maintained in LM511 with CHIR99021 added; immediately before initiation of differentiation (FIG. 7)
Experimental: To detect pluripotency markers SOX2 and OCT3/4, intracellular staining was performed by flow cytometry. Briefly, dead cell staining was performed using Zombie (trade s mark) Aqua Fixable Viability Kit (BioLegend, San Diego, Calif., USA). After washing, the cells were fixed by allowing to stand for 15 min at room temperature with PerFix-nckit Reagent1. Successively, the cells were subjected to a permeation treatment by fixing with ice-cooled 100% methanol for 5 min, and incubating for 10 min at room temperature with 0.5% saponin. The cells were washed and suspended in PBS (containing 3% FBS), V450 Mouse anti-Sox2 and Alexa Fluor (registered trade mark) 488 conjugated Mouse anti-OCT3/4 (BD biosciences, Bedford, Mass., USA) was added, and the mixture was incubated on ice for 30 min. Excessive antibody was washed away and analysis was performed with FACSVerse (trade mark) (BD Biosciences).

## Cc1c[nH]c(-c2cnc(NCCNc3ccc(C#N)cn3)nc2-c2ccc(Cl)cc2Cl)n1 [CHIR99021, 6-[2-[4-(2,4-Dichlorophenyl)-5-(4-methyl-1H-imidazol-2-yl)pyrimidin-2-ylamino]ethylamino]pyridine-3-carbonitrile]
[1]
  number of hematopoietic progenitor cells: the number of hematopoietic progenitor cells could be increased
Human iPS cell line AK5
  number of cells maintaining positive pluripotency for both OCT3/4 and SOX2: decreased
